Measured values as given in ChEMBL document CHEMBL1201862, “PubChem BioAssay data set” (2004).
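Test compounds were applied to cells in 96-well plates for 48 hours at 5 doses. GI50 = concentration required for 50% inhibition of growth.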 Active and inactive are the calls of the source. No stated cut-off is given here; in the data, active = GI50 up to about 1.1 µM and inactive = higher.

What was measured:
Assay in all cases: inhibition of tumour cell growth, NCI panel, 48 h
EKVX = system: EKVX
Malme-3M = system: Malme-3M
CCRF-CEM = system: CCRF-CEM
UACC-257 = system: UACC-257
DU-145 = system: DU-145
PC-3 = system: PC-3
UACC-62 = system: UACC-62
OVCAR-5 = system: OVCAR-5
SN12C = system: SN12C
LOX IMVI = system: LOX IMVI
786-0 = system: 786-0
HCT-116 = system: HCT-116
Hs-578T = system: Hs-578T
MDA-MB-435 = system: MDA-MB-435
ACHN = system: ACHN
CAKI-1 = system: CAKI-1
HOP-62 = system: HOP-62
HL-60 = system: HL-60
SF-539 = system: SF-539

Measured: GI50

CCSCC(N)C(=O)O (stereo not given)
inactive: EKVX > 100 µM | Malme-3M > 100 µM | CCRF-CEM > 100 µM | UACC-257 > 100 µM | DU-145 > 100 µM | PC-3 > 100 µM | UACC-62 > 100 µM | OVCAR-5 > 100 µM | SN12C > 100 µM | LOX IMVI > 100 µM | 786-0 > 100 µM | HCT-116 > 100 µM | Hs-578T > 100 µM | MDA-MB-435 > 100 µM | ACHN > 100 µM | CAKI-1 > 100 µM | HOP-62 > 100 µM | HL-60 > 100 µM

O=C(O)C1C(C(=O)O)C(C(=O)O)C1C(=O)O (stereo not given)
inactive: EKVX > 100 µM | Malme-3M > 100 µM | CCRF-CEM > 100 µM | UACC-257 > 100 µM | DU-145 > 100 µM | PC-3 > 100 µM | UACC-62 > 100 µM | OVCAR-5 > 100 µM | SN12C > 100 µM | LOX IMVI > 100 µM | 786-0 > 100 µM | HCT-116 > 100 µM | Hs-578T > 100 µM | SF-539 > 100 µM | MDA-MB-435 > 100 µM | ACHN > 100 µM | CAKI-1 > 100 µM | HOP-62 > 100 µM

O[C@@H]1C[C@H](Cl)c2c(Cl)sc(Cl)c21
inactive: EKVX > 100 µM | Malme-3M > 100 µM | CCRF-CEM > 100 µM | UACC-257 > 100 µM | DU-145 > 100 µM | PC-3 > 100 µM | UACC-62 > 100 µM | OVCAR-5 > 100 µM | SN12C > 100 µM | LOX IMVI > 100 µM | 786-0 > 100 µM | HCT-116 > 100 µM | Hs-578T > 100 µM | SF-539 > 100 µM | MDA-MB-435 > 100 µM | ACHN > 100 µM | CAKI-1 > 100 µM | HOP-62 > 100 µM

Cn1ccnc1CC(C)(O)c1ccccc1 (stereo not given)
inactive: EKVX > 100 µM | Malme-3M > 100 µM | UACC-257 > 100 µM | DU-145 > 100 µM | PC-3 > 100 µM | UACC-62 > 100 µM | OVCAR-5 > 100 µM | SN12C > 100 µM | LOX IMVI > 100 µM | 786-0 > 100 µM | HCT-116 > 100 µM | Hs-578T > 100 µM | SF-539 > 100 µM | MDA-MB-435 > 100 µM | ACHN > 100 µM | CAKI-1 > 100 µM | HOP-62 > 100 µM

O=C1/C(=C/c2ccc(Br)s2)NC(=S)N1CN1CCOCC1
inactive: EKVX 8.38 µM | Malme-3M > 100 µM | UACC-257 66.8 µM | DU-145 53.2 µM | PC-3 78.9 µM | UACC-62 20.2 µM | OVCAR-5 61.1 µM | SN12C 45.4 µM | LOX IMVI 24.5 µM | 786-0 43 µM | HCT-116 31.8 µM | Hs-578T 65.3 µM | MDA-MB-435 56.9 µM | ACHN 48 µM | CAKI-1 25.2 µM | HOP-62 > 100 µM | HL-60 23.9 µM

CCCCn1c(CSc2ccc(Cl)cc2)c(C(=O)OCC)c2cc(OC)c(Br)cc21
inactive: EKVX > 100 µM | Malme-3M > 100 µM | CCRF-CEM > 100 µM | UACC-257 > 100 µM | DU-145 > 100 µM | PC-3 > 100 µM | UACC-62 > 100 µM | OVCAR-5 > 100 µM | SN12C > 100 µM | LOX IMVI > 100 µM | 786-0 > 100 µM | HCT-116 > 100 µM | Hs-578T > 100 µM | MDA-MB-435 > 100 µM | ACHN > 100 µM | CAKI-1 31.5 µM | HOP-62 > 100 µM | HL-60 > 100 µM

O=c1[nH]c(=O)n(CCOc2ccc(Cl)cc2)cc1Nc1ccccc1
inactive: EKVX 71 µM | CCRF-CEM > 100 µM | UACC-257 > 100 µM | DU-145 > 100 µM | PC-3 > 100 µM | UACC-62 > 100 µM | OVCAR-5 > 100 µM | SN12C > 100 µM | LOX IMVI > 100 µM | 786-0 44.3 µM | HCT-116 > 100 µM | Hs-578T 29.2 µM | MDA-MB-435 > 100 µM | ACHN > 100 µM | CAKI-1 > 100 µM | HOP-62 > 100 µM | HL-60 > 100 µM

CNC(=O)c1nc[nH]c1/N=N/N(C)N
inactive: EKVX > 100 µM | Malme-3M > 100 µM | CCRF-CEM > 10 µM | UACC-257 > 100 µM | DU-145 > 100 µM | PC-3 > 100 µM | UACC-62 > 100 µM | OVCAR-5 > 100 µM | SN12C > 100 µM | LOX IMVI 74.6 µM | 786-0 > 100 µM | HCT-116 > 100 µM | Hs-578T > 100 µM | SF-539 > 100 µM | MDA-MB-435 > 100 µM | CAKI-1 > 100 µM | HOP-62 > 100 µM

CCC(CCN)(CCN)[N+](=O)[O-]
inactive: EKVX > 100 µM | Malme-3M > 100 µM | UACC-257 > 100 µM | DU-145 > 100 µM | PC-3 > 100 µM | UACC-62 > 100 µM | OVCAR-5 > 100 µM | SN12C > 100 µM | 786-0 > 100 µM | HCT-116 > 100 µM | Hs-578T > 100 µM | SF-539 > 100 µM | MDA-MB-435 > 100 µM | CAKI-1 > 100 µM | HL-60 > 100 µM

C=CCN(c1cc(OCc2ccccc2)c2c(c(C)cn2S(=O)(=O)c2ccc([N+](=O)[O-])cc2)c1[N+](=O)[O-])S(C)(=O)=O
inactive: EKVX > 100 µM | Malme-3M > 100 µM | UACC-257 > 100 µM | DU-145 > 100 µM | PC-3 > 100 µM | UACC-62 > 100 µM | OVCAR-5 > 100 µM | SN12C > 100 µM | LOX IMVI > 100 µM | 786-0 > 100 µM | HCT-116 > 100 µM | Hs-578T > 100 µM | SF-539 > 100 µM | MDA-MB-435 1.47 µM | ACHN > 100 µM | CAKI-1 > 100 µM | HOP-62 > 100 µM

O=C1C[C@@H](c2ccccc2)O[C@@H](c2ccccc2)C1
inactive: EKVX > 100 µM | Malme-3M > 100 µM | CCRF-CEM > 100 µM | UACC-257 > 100 µM | DU-145 > 100 µM | PC-3 > 100 µM | UACC-62 > 100 µM | OVCAR-5 > 100 µM | SN12C 84.7 µM | LOX IMVI > 100 µM | 786-0 > 100 µM | HCT-116 > 100 µM | Hs-578T > 100 µM | SF-539 > 100 µM | MDA-MB-435 > 100 µM | CAKI-1 > 100 µM | HOP-62 > 100 µM

CN/C(N)=N/N=C1/C(=O)Nc2ccccc21
inactive: EKVX > 100 µM | Malme-3M > 100 µM | CCRF-CEM > 100 µM | UACC-257 > 100 µM | DU-145 > 100 µM | PC-3 > 100 µM | UACC-62 > 100 µM | OVCAR-5 > 100 µM | SN12C > 100 µM | LOX IMVI > 100 µM | 786-0 > 100 µM | HCT-116 > 100 µM | Hs-578T > 100 µM | MDA-MB-435 > 100 µM | ACHN > 100 µM | CAKI-1 > 100 µM | HOP-62 > 100 µM | HL-60 > 100 µM

COC(OC)C1OCC(n2cc(F)c(=O)[nH]c2=O)C1O (stereo not given)
inactive: EKVX > 100 µM | Malme-3M > 100 µM | CCRF-CEM > 100 µM | UACC-257 > 100 µM | DU-145 > 100 µM | PC-3 > 100 µM | UACC-62 > 100 µM | OVCAR-5 > 100 µM | SN12C > 100 µM | LOX IMVI > 100 µM | 786-0 > 100 µM | HCT-116 > 100 µM | Hs-578T > 100 µM | SF-539 > 100 µM | MDA-MB-435 > 100 µM | ACHN > 100 µM | CAKI-1 > 100 µM | HOP-62 > 100 µM

CCN(CC)c1c(-c2c(OC(C)C)c(=O)c2=O)c(=O)n2ccsc2c1OC(C)=O
inactive: EKVX 71.9 µM | Malme-3M 39.7 µM | CCRF-CEM > 100 µM | UACC-257 > 100 µM | DU-145 > 100 µM | PC-3 > 100 µM | UACC-62 > 100 µM | OVCAR-5 > 100 µM | SN12C > 100 µM | LOX IMVI > 100 µM | 786-0 > 100 µM | HCT-116 > 100 µM | Hs-578T 17.8 µM | MDA-MB-435 > 100 µM | ACHN > 100 µM | CAKI-1 > 100 µM | HOP-62 > 100 µM | HL-60 85.3 µM

N=C(N)C(/N=N\c1ccccc1)C(N)=O (stereo not given)
inactive: EKVX 95.7 µM | Malme-3M > 100 µM | UACC-257 > 100 µM | DU-145 > 100 µM | PC-3 > 100 µM | UACC-62 43.3 µM | OVCAR-5 > 100 µM | SN12C > 100 µM | LOX IMVI 83 µM | 786-0 > 100 µM | HCT-116 > 100 µM | Hs-578T > 100 µM | MDA-MB-435 83.4 µM | ACHN > 100 µM | CAKI-1 64.7 µM | HOP-62 > 100 µM | HL-60 > 100 µM

OC(c1ccc(Cl)cc1)(c1ccc(Cl)cc1)c1cncnc1
inactive: Malme-3M 33.7 µM | CCRF-CEM 15.3 µM | UACC-257 19.2 µM | DU-145 24.6 µM | PC-3 12.9 µM | UACC-62 14.8 µM | OVCAR-5 18.9 µM | SN12C 26.7 µM | LOX IMVI 23.2 µM | HCT-116 14.3 µM | Hs-578T 25.3 µM | MDA-MB-435 18.3 µM | CAKI-1 17.6 µM | HOP-62 18.6 µM | HL-60 > 10 µM
